Experimental data published in patent publication EP4692061A1, “LOW-MOLECULAR-WEIGHT COMPOUND HAVING CEREBLON-BINDING ACTIVITY, AND USE THEREOF” (Aevis Bio, Inc., priority 2023, dated 2024).
Like-named read-outs stand apart in the source and are kept apart here.

Biological target: cereblon (CRBN) (Homo sapiens, UniProt Q96SW2)
Test: In vitro CRBN binding assay (AlphaScreen, competitive inhibition of the PROTAC assay)
[1] = Table 1, AlphaScreen, PROTAC Optimization Kit for BET Bromodomain-Cereblon Binding, read-out: Alpha IC50

| SMILES | IC50 [1] [nM] | further results |
| --- | --- | --- |
| O=C1CCC(c2ccc(F)cc2)C(=O)N1 (stereo not shown) [AEV40004] | 4430 | – |
| CC(=O)Nc1cccc(C2CCC(=O)NC2=O)c1 (stereo not shown) [AEV40016] | 5280 | – |
| CC(C)C(=O)Nc1cccc(C2CCC(=O)NC2=O)c1 (stereo not shown) [AEV40024] | 6110 | – |
| O=C1CCC(c2cccc(NS(=O)(=O)c3ccccc3)c2)C(=O)N1 (stereo not shown) [AEV40025] | 1860 | – |
| Nc1cccc(C2CCC(=O)NC2=O)c1 (stereo not shown) [AEV40029] | 2960 | – |
| CS(=O)(=O)Nc1cccc(C2CCC(=O)NC2=O)c1 (stereo not shown) [AEV40030] | 7060 | – |
| C[C@H](O)C(=O)Nc1cccc(C2CCC(=O)NC2=O)c1 (stereo partly shown) [AEV40031] | 3860 | – |
| O=C1CCC(c2ccc3c(c2)C(=O)NC3)C(=O)N1 (stereo not shown) [AEV40032] | 3100 | – |
| CC(=O)Nc1ccc(F)c(C2CCC(=O)NC2=O)c1 (stereo not shown) [AEV40034] | 6260 | – |
| CC(C)C(=O)Nc1ccc(F)c(C2CCC(=O)NC2=O)c1 (stereo not shown) [AEV40035] | 3110 | – |
| O=C1CCC(c2ccc3c(c2)CNC3=O)C(=O)N1 (stereo not shown) [AEV40040] | 1390 | – |
| O=C1CCC(c2ccc3c(c2)CCNC3=O)C(=O)N1 (stereo not shown) [AEV40041] | – | IC50: 760 nM |
| COCCN1Cc2cc(C3CCC(=O)NC3=O)ccc2C1=O (stereo not shown) [AEV40042] | 5400 | – |
| CCCc1ccc(S(=O)(=O)Nc2cccc(C3CCC(=O)NC3=O)c2)cc1 (stereo not shown) [AEV40047] | 1500 | – |
| O=C1CCC(c2ccc3c(c2)CN(CCc2ccccc2)C3=O)C(=O)N1 (stereo not shown) [AEV40049] | 2060 | – |
| CN1Cc2cc(C3CCC(=O)NC3=O)ccc2C1=O (stereo not shown) [AEV40050] | 2680 | – |
| CS(=O)(=O)N1Cc2cc(C3CCC(=O)NC3=O)ccc2C1=O (stereo not shown) [AEV40059] | 102000 | – |
| Cc1ccc([N+](=O)[O-])cc1S(=O)(=O)Nc1cccc(C2CCC(=O)NC2=O)c1 (stereo not shown) [AEV40060] | 1520 | – |
| O=C1CCC(c2ccc3c(c2)NC(=O)C3)C(=O)N1 (stereo not shown) [AEV40062] | 2390 | – |
| O=C1CCC(c2ccc(NS(=O)(=O)c3ccc(Cl)cc3)cc2)C(=O)N1 (stereo not shown) [AEV40063] | 1430 | – |
| Cc1cccc(S(=O)(=O)Nc2cccc(C3CCC(=O)NC3=O)c2)c1 (stereo not shown) [AEV40069] | – | IC50 (read-out: Alpha IC50, Table 1, AlphaScreen, PROTAC Optimization Kit for BET Bromodomain-Cereblon Binding): 710 nM |
| O=C1CCC(c2cccc(NC(=O)c3ccc(Cl)cc3Cl)c2)C(=O)N1 (stereo not shown) [AEV40076] | 1350 | – |
| O=C1CCC(c2ccc3c(c2)CN(S(=O)(=O)c2ccc(Cl)cc2)C3=O)C(=O)N1 (stereo not shown) [AEV40077] | 55300 | – |
| O=C1CCC(c2ccc3c(c2)C(=O)NCC3)C(=O)N1 (stereo not shown) [AEV40078] | 3110 | – |

| SMILES | IC50 [1] [nM] | further results |
| --- | --- | --- |
| O=C1CCC(c2ccc3c(c2)OCCNC3=O)C(=O)N1 (stereo not shown) [AEV40079] | 2440 | – |
| O=C1CCC(c2ccc3c(c2)OCCN(c2ccccc2)C3=O)C(=O)N1 (stereo not shown) [AEV40085] | 6580 | – |
| O=C1CCC(c2ccc3c(c2)OCCN(Cc2ccccc2)C3=O)C(=O)N1 (stereo not shown) [AEV40086] | 4140 | – |
| O=C1CCC(c2cccc(NC(=O)c3ccccc3)c2)C(=O)N1 (stereo not shown) [AEV40088] | 2190 | – |
| O=C1CCC(c2cccc(NCc3ccc(Cl)cc3)c2)C(=O)N1 (stereo not shown) [AEV40090] | 2140 | – |
| Cc1ccc(CNc2cccc(C3CCC(=O)NC3=O)c2)cc1F (stereo not shown) [AEV40095] | 1580 | – |
| CC(C)(C)c1ccc(CNc2cccc(C3CCC(=O)NC3=O)c2)cc1 (stereo not shown) [AEV40098] | 2850 | – |
| O=C1CCC(c2cccc(NS(=O)(=O)c3ccc(C(F)(F)F)cc3)c2)C(=O)N1 (stereo not shown) [AEV40100] | 1390 | – |
| O=C1CCC(c2cccc(NCc3ccc(Oc4ccccc4)cc3)c2)C(=O)N1 (stereo not shown) [AEV40103] | 3130 | – |
| O=C1CCC(c2cccc(NCc3ccc(C(F)(F)F)cc3)c2)C(=O)N1 (stereo not shown) [AEV40104] | 1720 | – |
| O=C1CCC(c2cccc(NCc3cccc(C(F)F)c3)c2)C(=O)N1 (stereo not shown) [AEV40105] | 1420 | – |
| O=C1CCC(c2cccc(NCc3cccc(F)c3)c2)C(=O)N1 (stereo not shown) [AEV40107] | 1490 | – |
| O=C1CCC(c2cccc(NCc3ccc(Br)cc3Cl)c2)C(=O)N1 (stereo not shown) [AEV40109] | 2520 | – |
| O=C1CCC(c2cccc(NCc3cc(F)c(F)c(F)c3)c2)C(=O)N1 (stereo not shown) [AEV40110] | 1960 | – |
| O=C1CCC(c2cccc(NCc3cccc4ccccc34)c2)C(=O)N1 (stereo not shown) [AEV40120] | 1410 | – |
| O=C1CCC(c2cccc(NCc3cccc(Oc4ccccc4)c3)c2)C(=O)N1 (stereo not shown) [AEV40121] | 3040 | – |
| O=C1CCC(c2cccc(NCc3ccc(-c4ccccc4)cc3)c2)C(=O)N1 (stereo not shown) [AEV40122] | 2470 | – |
| CC(C)(C)OC(=O)NCc1cccc(C2CCC(=O)NC2=O)c1 (stereo not shown) [AEV40130] | 4330 | – |
| NCc1cccc(C2CCC(=O)NC2=O)c1 (stereo not shown) [AEV40132] | > 10000 | – |
| O=C1CCC(c2cccc(NS(=O)(=O)c3cccc(NC(=O)c4ccc(Cl)cc4)c3)c2)C(=O)N1 (stereo not shown) [AEV40135] | 1200 | – |
| O=C1CCC(c2cccc(NC(=O)c3ccc(Cl)c(Cl)c3)c2)C(=O)N1 (stereo not shown) [AEV40137] | 2220 | – |
| O=C1CCC(c2cccc(NC(=O)c3ccc(Cl)cc3)c2)C(=O)N1 (stereo not shown) [AEV40139] | 2120 | – |
| O=C1CCC(c2cccc(NC(=O)c3ccc(F)cc3)c2)C(=O)N1 (stereo not shown) [AEV40140] | 1830 | – |
| Cc1ccc(C(=O)Nc2cccc(C3CCC(=O)NC3=O)c2)cc1 (stereo not shown) [AEV40141] | 2080 | – |

The remaining compounds from weak to strong by IC50 [1], led by results:

| IC50 [1] [nM] | SMILES | further results |
| --- | --- | --- |
| 1300 | O=C1CCC(c2cccc(NS(=O)(=O)c3ccc(F)cc3)c2)C(=O)N1 (stereo not shown) [AEV40101] | – |
| 1260 | O=C1CCC(c2cccc(NC(=O)Nc3ccc(C(F)(F)F)cc3)c2)C(=O)N1 (stereo not shown) [AEV40133] | – |
| 1240 | Cc1ccc(CNc2cccc(C3CCC(=O)NC3=O)c2)cc1 (stereo not shown) [AEV40102] | – |
| 1150 | O=C1CCC(c2cccc(NCc3ccccc3)c2)C(=O)N1 (stereo not shown) [AEV40087] | – |
| 1140 | O=C1CCC(c2cccc(O)c2)C(=O)N1 (stereo not shown) [AEV40089] | – |
| 1140 | Cc1cccc(CNc2cccc(C3CCC(=O)NC3=O)c2)c1 (stereo not shown) [AEV40106] | – |
| 1130 | COc1ccc(CN2CCOc3ccc(C4CCC(=O)NC4=O)cc3C2=O)cc1 (stereo not shown) [AEV40036] | – |
| 1130 | O=C1CCC(c2cccc(NC(=O)c3cccc(Cl)c3Cl)c2)C(=O)N1 (stereo not shown) [AEV40134] | – |
| 1120 | Nc1ccc(S(=O)(=O)Nc2cccc(C3CCC(=O)NC3=O)c2)cc1C(F)(F)F (stereo not shown) [AEV40075] | – |
| 1100 | Cc1ccccc1C(=O)Nc1cccc(C2CCC(=O)NC2=O)c1 (stereo not shown) [AEV40146] | – |
| 1050 | O=C1CCC(c2cccc(NS(=O)(=O)c3ccccc3C(F)(F)F)c2)C(=O)N1 (stereo not shown) [AEV40070] | – |
| 1030 | O=C1CCC(c2cccc(NC(=O)c3ccccc3F)c2)C(=O)N1 (stereo not shown) [AEV40145] | – |
| 1000 | CCc1ccc(S(=O)(=O)Nc2cccc(C3CCC(=O)NC3=O)c2)cc1 (stereo not shown) [AEV40046] | – |
| 990 | COc1cc(Cl)ccc1CNc1cccc(C2CCC(=O)NC2=O)c1 (stereo not shown) [AEV40096] | – |
| 990 | O=C1CCC(c2cccc(NCc3ccc(F)cc3O)c2)C(=O)N1 (stereo not shown) [AEV40097] | – |
| 980 | O=C1CCC(c2cccc(NS(=O)(=O)c3cccc(NC(=O)c4ccc(Cl)c(Cl)c4)c3)c2)C(=O)N1 (stereo not shown) [AEV40142] | – |
| 970 | Cc1ccc(CNc2cccc(C3CCC(=O)NC3=O)c2)s1 (stereo not shown) [AEV40092] | – |
| 960 | O=C1CCC(c2cccc(NC(=O)c3ccccc3Cl)c2)C(=O)N1 (stereo not shown) [AEV40144] | – |
| 950 | Cc1c(F)cccc1S(=O)(=O)Nc1cccc(C2CCC(=O)NC2=O)c1 (stereo not shown) [AEV40052] | – |
| 910 | Cc1c(Cl)cccc1S(=O)(=O)Nc1cccc(C2CCC(=O)NC2=O)c1 (stereo not shown) [AEV40043] | – |
| 910 | O=C1CCC(c2cccc(NS(=O)(=O)c3cccc([N+](=O)[O-])c3)c2)C(=O)N1 (stereo not shown) [AEV40056] | – |
| 870 | Cc1ccc(C2CCC(=O)NC2=O)cc1 (stereo not shown) [AEV40039] | – |
| 860 | O=C1CCC(c2cccc(NS(=O)(=O)c3ccc(Cl)cc3)c2)C(=O)N1 (stereo not shown) [AEV40037] | – |

| IC50 [1] [nM] | SMILES | further results |
| --- | --- | --- |
| 840 | COc1cc(C)ccc1CNc1cccc(C2CCC(=O)NC2=O)c1 (stereo not shown) [AEV40108] | – |
| 810 | Cc1ccc(CNc2cccc(C3CCC(=O)NC3=O)c2)c(C)c1 (stereo not shown) [AEV40094] | – |
| 800 | O=C1CCC(c2cccc(NC(=O)c3c(Cl)cc(Cl)cc3Cl)c2)C(=O)N1 (stereo not shown) [AEV40138] | – |
| 790 | O=C1CCC(c2cccc(NS(=O)(=O)c3cccc4ccccc34)c2)C(=O)N1 (stereo not shown) [AEV40048] | – |
| 790 | Cn1cnc(S(=O)(=O)Nc2cccc(C3CCC(=O)NC3=O)c2)c1 (stereo not shown) [AEV40051] | – |
| 790 | O=C1CCC(c2cccc(NS(=O)(=O)c3cccc(NC(=O)c4cccc(Cl)c4)c3)c2)C(=O)N1 (stereo not shown) [AEV40136] | – |
| 750 | O=C1CCC(c2cccc(NS(=O)(=O)c3ccc([N+](=O)[O-])c(C(F)(F)F)c3)c2)C(=O)N1 (stereo not shown) [AEV40053] | – |
| 690 | O=C1CCC(c2cc(NS(=O)(=O)c3ccc(Cl)cc3)ccc2F)C(=O)N1 (stereo not shown) [AEV40038] | – |
| 680 | O=C1CCC(c2cccc(NS(=O)(=O)c3cccc(Cl)c3Cl)c2)C(=O)N1 (stereo not shown) [AEV40058] | – |
| 660 | Cc1cn(C)nc1CNc1cccc(C2CCC(=O)NC2=O)c1 (stereo not shown) [AEV40113] | – |
| 610 | O=C1CCC(c2cccc(NS(=O)(=O)c3cccc(NC(=O)c4ccccc4)c3)c2)C(=O)N1 (stereo not shown) [AEV40143] | – |
| 590 | O=C1CCC(c2cccc(NS(=O)(=O)c3ccccc3Cl)c2)C(=O)N1 (stereo not shown) [AEV40057] | – |
| 590 | O=C1CCC(c2cccc(NS(=O)(=O)c3ccccc3[N+](=O)[O-])c2)C(=O)N1 (stereo not shown) [AEV40061] | – |
| 590 | Nc1cccc(S(=O)(=O)Nc2cccc(C3CCC(=O)NC3=O)c2)c1 (stereo not shown) [AEV40073] | – |
| 370 | O=C1CCC(c2cccc(NC(=O)Nc3ccccc3)c2)C(=O)N1 (stereo not shown) [AEV40129] | – |
| 310 | O=C1CCC(c2cccc(NS(=O)(=O)c3cccs3)c2)C(=O)N1 (stereo not shown) [AEV40072] | – |
| 300 | O=C1CCC(c2cccc(NS(=O)(=O)c3ccccc3F)c2)C(=O)N1 (stereo not shown) [AEV40045] | – |
| 270 | Nc1ccccc1S(=O)(=O)Nc1cccc(C2CCC(=O)NC2=O)c1 (stereo not shown) [AEV40074] | – |
| 230 | O=C1CCC(c2cccc(NS(=O)(=O)c3ccc(Cl)cc3F)c2)C(=O)N1 (stereo not shown) [AEV40044] | – |
| 220 | O=C1CCC(c2cccc(NS(=O)(=O)c3ccc4oc(=O)ccc4c3)c2)C(=O)N1 (stereo not shown) [AEV40071] | – |
| 200 | O=C1CCC(c2cccc(NS(=O)(=O)c3ccc(Cl)cc3Cl)c2)C(=O)N1 (stereo not shown) [AEV40054] | – |
| 200 | O=C1CCC(c2cccc(NS(=O)(=O)c3ccc([N+](=O)[O-])cc3)c2)C(=O)N1 (stereo not shown) [AEV40055] | – |
| 190 | O=C1CCC(c2cccc(NC(=O)Nc3ccc(Cl)cc3)c2)C(=O)N1 (stereo not shown) [AEV40131] | – |
